Data taken from patent US4746648A, “Peptide derivatives which inhibit renin and acid proteases” (Sanofi; Institut National de la Recherche Medicale, priority 1985, dated 1988).
Starred links: 1 amine or outer side, 2 acyl side, 3 side chain; linkers in the order of their positions; H or OH if unused. Non-standard residues stand in square brackets, D forms with d. Residues, ends and D or L forms follow the SMILES beside them. ξ: configuration not given here. *: point of attachment. X9 = CCn1cnc(C[C@H](N[*:1])C(=O)[*:2])c1; His(τ-Me) = Cn1cnc(C[C@H](N)C(=O)O)c1; Sta = CC(C)C[C@H](N)[C@@H](O)CC(=O)O; X10 = Cc1nc(C(N[*:1])C(=O)[*:2])cs1; Gly(cPent) = N[C@H](C(=O)O)C1CCCC1; Phg = N[C@H](C(=O)O)c1ccccc1; ξ3Pal = NC(Cc1cccnc1)C(=O)O; ξ4Pal = NC(Cc1ccncc1)C(=O)O; Isovaleryl = CC(C)CC(=O)*; Boc = CC(C)(C)OC(=O)*; OBn = c1ccc(CO*)cc1; X4 = c1ccc(C*)nc1; tBu = CC(C)(C)*

Molecular target: T1, human plasma renin activity (PRA) (Homo sapiens, UniProt P00797)
T1 construct: from tissue; host or cells: human plasma pool
T1 sequence (P00797 67-406): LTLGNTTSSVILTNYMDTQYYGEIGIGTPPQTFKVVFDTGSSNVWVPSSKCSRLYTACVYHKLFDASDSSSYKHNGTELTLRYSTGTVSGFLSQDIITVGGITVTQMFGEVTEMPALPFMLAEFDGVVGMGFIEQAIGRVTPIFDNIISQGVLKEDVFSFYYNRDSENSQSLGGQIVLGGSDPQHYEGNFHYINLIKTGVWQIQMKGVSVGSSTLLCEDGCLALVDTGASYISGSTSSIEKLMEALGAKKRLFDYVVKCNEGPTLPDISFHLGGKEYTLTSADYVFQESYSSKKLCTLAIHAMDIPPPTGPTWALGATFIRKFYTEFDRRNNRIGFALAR
Experiment: Inhibition of human plasma renin activity (PRA) in vitro, angiotensin I released measured by radioimmunoassay
Assay type: biochemical
Conditions: for IC50: read-out: Inhibition of human PRA -log IC50 M pH 7.4 (converted); for Inhibition of human PRA -log IC50 M pH 7.4: human plasma pool rich in renin, 60 min at 37° C., phosphate buffer pH 7.4
Experimental: Human plasma contains the substrate angiotensinogen and the enzyme renin. […] An inhibitor of the conversion enzyme, phenylmethylsulfonyl fluoride (PMSF), is added to the incubation medium.
420 microliters of human plasma
11 to 50 microliters of the product to be studied, at variable concentrations
A solution of acetic acid in methanol (19/1 by volume) and a solution of sodium hydroxide in methanol (2/1 by volume) are prepared. In a mixture of equal volumes of these 2 solutions, a 0.001M stock solution of the peptide is prepared. The subsequent dilutions of the peptide are then made up in the phosphate buffer.
The results are expressed by their logarithmic value (-log IC50).

Row | IC50 [nM] | Molecule | other results
1 | 2140 | COC(=O)C[C@H](O)[C@H](CC(C)C)NC(=O)[C@H](C)NC(=O)C[C@H](O)[C@H](CC(C)C)NC(=O)[C@H](COC(C)(C)C)NC(=O)[C@H](Cc1ccccc1)NC(=O)OC(C)(C)C [SR 43297, Boc--Phe--((CH3)3 CO)Ser--Sta--Ala--Sta--OMe] (Boc-FS(tBu)[Sta]A[Sta]-OMe) | 
2 | 316 | COC(=O)C[C@H](O)[C@H](CC(C)C)NC(=O)[C@H](C)NC(=O)C[C@H](O)[C@H](CC(C)C)NC(=O)[C@H](COCc1ccccn1)NC(=O)[C@H](Cc1ccccc1)NC(=O)OC(C)(C)C [SR 43555, Boc--Phe--((Pyr--2)CH2 O)Ser--Sta--Ala--Sta--OMe] (Boc-FS(X4)[Sta]A[Sta]-OMe) | 
3 | 3020 | COC(=O)[C@H](CC(C)C)NC(=O)[C@H](C)NC(=O)C[C@H](O)[C@H](CC(C)C)NC(=O)C(NC(=O)[C@H](Cc1ccccc1)NC(=O)OC(C)(C)C)c1csc(C)n1 (stereo partly drawn) [SR 43059, Boc-Phe-(2-methylthiazol-4-yl)Gly-Sta-Ala-Leu-OMe] (Boc-F[X10][Sta]AL-OMe) | 
4 | 64.6 | CCn1cnc(C[C@H](NC(=O)[C@H](Cc2ccccc2)NC(=O)OC(C)(C)C)C(=O)N[C@@H](CC(C)C)[C@@H](O)CC(=O)N[C@@H](C)C(=O)N[C@@H](CC(C)C)[C@@H](O)CC(=O)OC)c1 [SR 43391, Boc--Phe--(tauEt)His--Sta--Ala--Sta--OMe] (Boc-F[X9][Sta]A[Sta]-OMe) | 
5 | 316 | COC(=O)[C@H](Cc1ccccc1)NC(=O)[C@H](CC(C)C)NC(=O)C[C@H](O)[C@H](CC(C)C)NC(=O)C(Cc1cccnc1)NC(=O)[C@H](Cc1ccccc1)NC(=O)OC(C)(C)C (stereo partly drawn) [SR 43064, Boc-Phe-(Pyr-3)Ala-Sta-Leu-Phe-OMe] (Boc-F[ξ3Pal][Sta]LF-OMe) | 
6 | 417 | COC(=O)C[C@H](O)[C@H](CC(C)C)NC(=O)[C@H](C)NC(=O)C[C@H](O)[C@H](CC(C)C)NC(=O)C(Cc1cccnc1)NC(=O)[C@H](Cc1ccccc1)NC(=O)OC(C)(C)C (stereo partly drawn) [SR 43429, Boc-Phe-(Pyr-3)Ala-Sta-Ala-Sta-OMe] (Boc-F[ξ3Pal][Sta]A[Sta]-OMe) | 
7 | 151 | CC(C)CC(=O)N[C@@H](Cc1ccccc1)C(=O)N[C@@H](Cc1cn(C)cn1)C(=O)N[C@@H](CC(C)C)[C@@H](O)CC(=O)N[C@@H](C)C(=O)N[C@@H](CC(C)C)[C@@H](O)CC(=O)O [SR 43761, iVa--Phe--(tauMe)His--Sta--Ala--Sta--OH] (Isovaleryl-F[His(τ-Me)][Sta]A[Sta]-OH) | 
8 | 398 | COC(=O)[C@H](CC(C)C)NC(=O)[C@H](C)NC(=O)C[C@H](O)[C@H](CC(C)C)NC(=O)[C@H](CC(=O)OCc1ccccc1)NC(=O)[C@H](Cc1ccccc1)NC(=O)OC(C)(C)C [SR 42926, Boc-Phe-(PhCH2)Asp-Sta-Ala-Leu-OMe] (Boc-FD(OBn)[Sta]AL-OMe) | 

Second part, the molecule before the results:

Row | Molecule | IC50 [nM] | other results
9 | Boc-Phe-(Pyr-2)Ala-Sta-Leu-Phe-OMe [SR 43151] |  | Inhibition of human PRA -log IC50 M pH 7.4 (listed as 41 151): 6.66 -log M
10 | COC(=O)[C@H](Cc1ccccc1)NC(=O)[C@H](CC(C)C)NC(=O)C[C@H](O)[C@H](CC(C)C)NC(=O)C(Cc1ccncc1)NC(=O)[C@H](Cc1ccccc1)NC(=O)OC(C)(C)C (stereo partly drawn) [SR 43144, Boc-Phe-(Pyr-4)Ala-Sta-Leu-Phe-OMe] (Boc-F[ξ4Pal][Sta]LF-OMe) | 1320 | 
11 | Boc--Phe--(1-methylimidazol-2-yl)Ala--AHPPA--Ala--Sta--OCH3 [SR 43428] |  | Inhibition of human PRA -log IC50 M pH 7.4: 6.16 -log M
12 | COC(=O)C[C@H](O)[C@H](CC(C)C)NC(=O)[C@H](C)NC(=O)C[C@H](O)[C@H](CC(C)C)NC(=O)[C@@H](NC(=O)[C@H](Cc1ccccc1)NC(=O)OC(C)(C)C)C1CCCC1 [SR 43554, Boc--Phe--Cpg--Sta--Ala--Sta--OMe] (Boc-F[Gly(cPent)][Sta]A[Sta]-OMe) | 37.2 | 
13 | COC(=O)C[C@H](O)[C@H](CC(C)C)NC(=O)[C@H](C)NC(=O)C[C@H](O)[C@H](CC(C)C)NC(=O)[C@@H](NC(=O)[C@H](Cc1ccccc1)NC(=O)OC(C)(C)C)c1ccccc1 [SR 42823, Boc--Phe--Phg--Sta--Ala--Sta--OMe] (Boc-F[Phg][Sta]A[Sta]-OMe) | 93.3 | 
14 | Boc-Phe-(Pyr-2)Ala-Sta-Leu-Phe-OMe [SR 43150] |  | Inhibition of human PRA -log IC50 M pH 7.4: 5.21 -log M
